Test results taken from the kinase profiling compilation of Christmann-Franck et al. (2016).

Key:
Experiment in all cases: KINOMEscan competition binding
Settings in all cases: compound 0.5 µM
ERBB4 (human) = ERBB4 (human) (UniProt Q15303)
MAP4K1 (human) = MAP4K1 (human) (UniProt Q92918)
YSK4 (human) = YSK4 (human) (UniProt Q56UN5)
MAPK7 (human) = MAPK7 (human) (UniProt Q13164)
MERTK (human) = MERTK (human) (UniProt Q12866)
LATS2 (human) = LATS2 (human) (UniProt Q9NRM7)
EPHA2 (human) = EPHA2 (human) (UniProt P29317)
EIF2AK1 (human) = EIF2AK1 (human) (UniProt Q9BQI3)
CASK (human) = CASK (human) (UniProt O14936)
AKT3 (human) = AKT3 (human) (UniProt Q9Y243)
RPS6KA2 KD2 (human) = RPS6KA2 KD2 (human) (UniProt Q15349)
ULK3 (human) = ULK3 (human) (UniProt Q6PHR2)
PRKAA2 (human) = PRKAA2 (human) (UniProt P54646)
PAK1 (human) = PAK1 (human) (UniProt Q13153)
PDGFRB (human) = PDGFRB (human) (UniProt P09619)
SNRK (human) = SNRK (human) (UniProt Q9NRH2)
NEK4 (human) = NEK4 (human) (UniProt P51957)
Sequence of NEK4 (human) (P51957 whole entry, looked up): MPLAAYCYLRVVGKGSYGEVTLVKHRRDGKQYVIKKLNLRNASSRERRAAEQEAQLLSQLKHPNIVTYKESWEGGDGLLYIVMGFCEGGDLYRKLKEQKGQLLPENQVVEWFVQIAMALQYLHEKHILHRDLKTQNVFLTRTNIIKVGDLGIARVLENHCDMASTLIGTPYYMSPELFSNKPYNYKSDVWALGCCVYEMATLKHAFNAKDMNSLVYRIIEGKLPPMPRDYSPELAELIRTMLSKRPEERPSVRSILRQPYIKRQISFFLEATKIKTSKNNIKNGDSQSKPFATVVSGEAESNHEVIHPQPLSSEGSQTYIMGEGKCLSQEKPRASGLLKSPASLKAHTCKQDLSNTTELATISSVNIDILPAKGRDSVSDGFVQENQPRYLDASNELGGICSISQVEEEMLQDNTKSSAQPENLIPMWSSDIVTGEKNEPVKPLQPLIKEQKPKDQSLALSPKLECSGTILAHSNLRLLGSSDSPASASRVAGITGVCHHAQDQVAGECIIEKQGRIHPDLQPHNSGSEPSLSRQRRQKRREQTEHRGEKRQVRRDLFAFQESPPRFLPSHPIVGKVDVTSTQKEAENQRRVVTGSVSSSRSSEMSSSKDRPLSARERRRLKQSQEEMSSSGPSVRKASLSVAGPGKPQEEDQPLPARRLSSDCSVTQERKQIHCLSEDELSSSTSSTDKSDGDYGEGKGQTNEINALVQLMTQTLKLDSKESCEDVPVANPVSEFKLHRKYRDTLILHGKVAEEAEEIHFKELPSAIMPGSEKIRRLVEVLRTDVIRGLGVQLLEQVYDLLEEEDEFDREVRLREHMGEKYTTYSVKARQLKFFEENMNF

NEK5 (human) = NEK5 (human) (UniProt Q6P3R8)
MAPK8 (human) = MAPK8 (human) (UniProt P45983)
DCLK3 (human) = DCLK3 (human) (UniProt Q9C098)
[1] = test system: KIT (human), P10721 [V559D/V654A]
SGK3 (human) = SGK3 (human) (UniProt Q96BR1)
Sequence of SGK3 (human) (Q96BR1 whole entry, looked up): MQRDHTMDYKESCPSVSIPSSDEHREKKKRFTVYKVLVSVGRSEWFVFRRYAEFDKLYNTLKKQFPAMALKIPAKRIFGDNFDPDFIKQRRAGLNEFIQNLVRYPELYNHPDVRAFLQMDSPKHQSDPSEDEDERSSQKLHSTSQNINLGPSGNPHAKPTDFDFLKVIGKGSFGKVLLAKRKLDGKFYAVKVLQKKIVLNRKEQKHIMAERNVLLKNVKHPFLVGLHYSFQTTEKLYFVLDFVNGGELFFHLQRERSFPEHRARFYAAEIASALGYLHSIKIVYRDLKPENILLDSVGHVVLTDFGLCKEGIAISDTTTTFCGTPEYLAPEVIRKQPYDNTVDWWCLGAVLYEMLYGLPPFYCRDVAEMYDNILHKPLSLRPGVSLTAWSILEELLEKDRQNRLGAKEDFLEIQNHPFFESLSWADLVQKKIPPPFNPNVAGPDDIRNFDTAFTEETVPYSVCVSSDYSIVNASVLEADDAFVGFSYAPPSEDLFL

MAP2K6 (human) = MAP2K6 (human) (UniProt P52564)
ICK (human) = ICK (human) (UniProt Q9UPZ9)
HUNK (human) = HUNK (human) (UniProt P57058)
RPS6KA6 KD2 (human) = RPS6KA6 KD2 (human) (UniProt Q9UK32)
MET (human) = MET (human) (UniProt P08581)
RIPK1 (human) = RIPK1 (human) (UniProt Q13546)
MAP3K6 (human) = MAP3K6 (human) (UniProt O95382)
CDKL3 (human) = CDKL3 (human) (UniProt Q8IVW4)
NTRK1 (human) = NTRK1 (human) (UniProt P04629)
[2] = test system: BRAF (human), P15056 [V600E]
SRPK2 (human) = SRPK2 (human) (UniProt P78362)
Sequence of SRPK2 (human) (P78362 whole entry, looked up): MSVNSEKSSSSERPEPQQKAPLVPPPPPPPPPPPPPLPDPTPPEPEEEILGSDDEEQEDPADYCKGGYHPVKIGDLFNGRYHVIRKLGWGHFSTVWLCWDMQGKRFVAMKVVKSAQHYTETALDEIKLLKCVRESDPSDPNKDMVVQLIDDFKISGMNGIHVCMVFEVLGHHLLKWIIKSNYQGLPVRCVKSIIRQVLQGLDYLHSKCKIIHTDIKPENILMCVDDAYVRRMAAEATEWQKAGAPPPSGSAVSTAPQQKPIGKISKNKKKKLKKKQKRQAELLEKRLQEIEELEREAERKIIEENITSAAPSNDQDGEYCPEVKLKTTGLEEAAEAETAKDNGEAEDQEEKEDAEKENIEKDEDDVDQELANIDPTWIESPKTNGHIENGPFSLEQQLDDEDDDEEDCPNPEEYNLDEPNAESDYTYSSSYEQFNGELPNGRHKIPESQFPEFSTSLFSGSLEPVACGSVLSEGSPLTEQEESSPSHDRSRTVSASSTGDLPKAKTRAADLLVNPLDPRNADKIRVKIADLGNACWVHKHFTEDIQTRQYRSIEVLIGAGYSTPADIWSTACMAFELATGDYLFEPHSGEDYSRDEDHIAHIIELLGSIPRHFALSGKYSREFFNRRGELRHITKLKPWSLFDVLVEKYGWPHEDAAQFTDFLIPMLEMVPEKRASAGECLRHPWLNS

MYO3B (human) = MYO3B (human) (UniProt Q8WXR4)
MKNK2 (human) = MKNK2 (human) (UniProt Q9HBH9)
Sequence of MKNK2 (human) (Q9HBH9 whole entry, looked up): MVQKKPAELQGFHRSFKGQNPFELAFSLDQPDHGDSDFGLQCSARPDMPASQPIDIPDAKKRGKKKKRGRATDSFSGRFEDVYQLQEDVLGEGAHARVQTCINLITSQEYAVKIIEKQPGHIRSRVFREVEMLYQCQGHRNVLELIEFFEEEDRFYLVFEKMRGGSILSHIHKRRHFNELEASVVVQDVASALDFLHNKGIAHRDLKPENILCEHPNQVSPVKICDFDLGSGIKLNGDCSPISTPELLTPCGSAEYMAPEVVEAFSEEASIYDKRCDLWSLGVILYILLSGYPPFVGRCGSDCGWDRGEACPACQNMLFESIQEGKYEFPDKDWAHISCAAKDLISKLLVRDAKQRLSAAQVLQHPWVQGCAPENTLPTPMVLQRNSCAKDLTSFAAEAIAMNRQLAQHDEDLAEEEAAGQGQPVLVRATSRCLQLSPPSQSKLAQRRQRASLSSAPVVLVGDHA

PKN1 (human) = PKN1 (human) (UniProt Q16512)
MAP2K5 (human) = MAP2K5 (human) (UniProt Q13163)
FGFR2 (human) = FGFR2 (human) (UniProt P21802)
Sequence of FGFR2 (human) (P21802 whole entry, looked up): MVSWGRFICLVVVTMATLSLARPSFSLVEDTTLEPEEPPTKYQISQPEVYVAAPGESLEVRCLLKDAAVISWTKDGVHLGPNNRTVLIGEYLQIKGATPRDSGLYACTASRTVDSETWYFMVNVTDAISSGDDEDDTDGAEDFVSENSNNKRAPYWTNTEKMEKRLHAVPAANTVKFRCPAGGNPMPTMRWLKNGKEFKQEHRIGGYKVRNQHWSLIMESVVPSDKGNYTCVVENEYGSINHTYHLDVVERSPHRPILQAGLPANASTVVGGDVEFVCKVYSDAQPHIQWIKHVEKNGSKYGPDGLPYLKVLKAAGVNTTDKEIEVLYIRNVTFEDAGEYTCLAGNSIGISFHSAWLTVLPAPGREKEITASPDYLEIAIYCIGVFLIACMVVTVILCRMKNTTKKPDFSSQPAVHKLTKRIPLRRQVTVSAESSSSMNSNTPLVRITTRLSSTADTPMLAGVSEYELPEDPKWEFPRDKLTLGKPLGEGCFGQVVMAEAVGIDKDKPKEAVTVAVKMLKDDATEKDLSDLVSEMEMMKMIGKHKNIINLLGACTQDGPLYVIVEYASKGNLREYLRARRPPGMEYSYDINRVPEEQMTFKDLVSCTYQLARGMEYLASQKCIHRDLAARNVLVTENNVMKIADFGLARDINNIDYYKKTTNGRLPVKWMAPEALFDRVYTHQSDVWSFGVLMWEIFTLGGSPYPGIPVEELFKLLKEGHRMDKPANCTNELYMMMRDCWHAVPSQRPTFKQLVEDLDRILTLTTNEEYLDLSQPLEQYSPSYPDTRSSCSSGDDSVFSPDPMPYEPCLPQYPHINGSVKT

NUAK2 (human) = NUAK2 (human) (UniProt Q9H093)
Sequence of NUAK2 (human) (Q9H093 whole entry, looked up): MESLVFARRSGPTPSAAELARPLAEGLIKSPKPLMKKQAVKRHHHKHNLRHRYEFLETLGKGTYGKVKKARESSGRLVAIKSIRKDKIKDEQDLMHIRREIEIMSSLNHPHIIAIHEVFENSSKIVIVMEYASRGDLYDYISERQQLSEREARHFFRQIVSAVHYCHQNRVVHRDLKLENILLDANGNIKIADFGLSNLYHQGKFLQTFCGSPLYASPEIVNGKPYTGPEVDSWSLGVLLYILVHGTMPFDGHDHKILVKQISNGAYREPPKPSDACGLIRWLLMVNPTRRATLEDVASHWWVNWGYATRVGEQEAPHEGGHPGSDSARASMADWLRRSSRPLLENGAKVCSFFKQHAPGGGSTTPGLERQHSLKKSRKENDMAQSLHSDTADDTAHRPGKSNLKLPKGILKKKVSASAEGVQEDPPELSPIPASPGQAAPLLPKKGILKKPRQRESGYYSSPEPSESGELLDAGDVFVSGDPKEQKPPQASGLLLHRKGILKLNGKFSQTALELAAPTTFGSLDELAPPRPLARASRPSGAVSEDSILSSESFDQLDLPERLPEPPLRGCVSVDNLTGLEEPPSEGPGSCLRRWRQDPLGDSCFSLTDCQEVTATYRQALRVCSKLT

AURKC (human) = AURKC (human) (UniProt Q9UQB9)
STK38L (human) = STK38L (human) (UniProt Q9Y2H1)
IKBKE (human) = IKBKE (human) (UniProt Q14164)

Sequence of MAPK7 (human) (Q13164 whole entry, looked up): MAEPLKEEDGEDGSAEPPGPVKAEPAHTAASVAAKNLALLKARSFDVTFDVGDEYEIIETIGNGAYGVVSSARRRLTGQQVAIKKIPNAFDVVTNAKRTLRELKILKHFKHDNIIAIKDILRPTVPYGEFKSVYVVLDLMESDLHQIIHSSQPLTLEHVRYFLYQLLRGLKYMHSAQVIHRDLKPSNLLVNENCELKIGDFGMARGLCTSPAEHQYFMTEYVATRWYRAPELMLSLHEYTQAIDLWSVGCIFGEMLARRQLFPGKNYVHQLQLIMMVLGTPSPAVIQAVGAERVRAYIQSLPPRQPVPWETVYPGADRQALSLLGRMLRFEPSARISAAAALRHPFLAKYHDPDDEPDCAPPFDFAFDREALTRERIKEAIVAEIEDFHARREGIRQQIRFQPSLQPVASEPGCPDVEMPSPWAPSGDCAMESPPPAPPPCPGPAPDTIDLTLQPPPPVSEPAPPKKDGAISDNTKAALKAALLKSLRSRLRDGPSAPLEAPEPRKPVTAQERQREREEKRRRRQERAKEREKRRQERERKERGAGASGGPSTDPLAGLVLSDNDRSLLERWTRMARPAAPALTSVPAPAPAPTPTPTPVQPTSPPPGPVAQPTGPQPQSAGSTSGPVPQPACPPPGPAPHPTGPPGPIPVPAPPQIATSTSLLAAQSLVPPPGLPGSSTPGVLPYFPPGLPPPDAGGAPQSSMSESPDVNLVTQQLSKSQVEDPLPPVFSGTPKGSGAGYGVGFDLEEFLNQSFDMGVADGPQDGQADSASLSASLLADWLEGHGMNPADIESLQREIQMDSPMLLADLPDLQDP

Compound: Cn1c2ccccc2c2c3c(c4c5ccccc5n(CCC#N)c4c21)CNC3=O
- kinase still bound, per cent of control (ERBB4 (human)): 82%
- kinase still bound, per cent of control (MAP4K1 (human)): 33%
- kinase still bound, per cent of control (YSK4 (human)): 0%
- kinase still bound, per cent of control (MAPK7 (human)): 0.1%
- kinase still bound, per cent of control (MERTK (human)): 89%
- kinase still bound, per cent of control (LATS2 (human)): 36%
- kinase still bound, per cent of control (EPHA2 (human)): 87%
- kinase still bound, per cent of control (EIF2AK1 (human)): 100%
- kinase still bound, per cent of control (CASK (human)): 72%
- kinase still bound, per cent of control (AKT3 (human)): 100%
- kinase still bound, per cent of control (RPS6KA2 KD2 (human)): 100%
- kinase still bound, per cent of control (ULK3 (human)): 15%
- kinase still bound, per cent of control (PRKAA2 (human)): 73%
- kinase still bound, per cent of control (PAK1 (human)): 84%
- kinase still bound, per cent of control (PDGFRB (human)): 42%
- kinase still bound, per cent of control (SNRK (human)): 69%
- kinase still bound, per cent of control (NEK4 (human)): 100%
- kinase still bound, per cent of control (NEK5 (human)): 100%
- kinase still bound, per cent of control (MAPK8 (human)): 18%
- kinase still bound, per cent of control (DCLK3 (human)): 100%
- kinase still bound, per cent of control [1]: 100%
- kinase still bound, per cent of control (SGK3 (human)): 72%
- kinase still bound, per cent of control (MAP2K6 (human)): 15%
- kinase still bound, per cent of control (ICK (human)): 20%
- kinase still bound, per cent of control (HUNK (human)): 87%
- kinase still bound, per cent of control (RPS6KA6 KD2 (human)): 100%
- kinase still bound, per cent of control (MET (human)): 88%
- kinase still bound, per cent of control (RIPK1 (human)): 100%
- kinase still bound, per cent of control (MAP3K6 (human)): 62%
- kinase still bound, per cent of control (CDKL3 (human)): 91%
- kinase still bound, per cent of control (NTRK1 (human)): 0.1%
- kinase still bound, per cent of control [2]: 92%
- kinase still bound, per cent of control (SRPK2 (human)): 9.2%
- kinase still bound, per cent of control (MYO3B (human)): 100%
- kinase still bound, per cent of control (MKNK2 (human)): 11%
- kinase still bound, per cent of control (PKN1 (human)): 9.4%
- kinase still bound, per cent of control (MAP2K5 (human)): 58%
- kinase still bound, per cent of control (FGFR2 (human)): 95%
- kinase still bound, per cent of control (NUAK2 (human)): 4.4%
- kinase still bound, per cent of control (AURKC (human)): 8%
- kinase still bound, per cent of control (STK38L (human)): 66%
- kinase still bound, per cent of control (IKBKE (human)): 99%
